IC50 data for 17 compounds are collected here from ChEMBL document CHEMBL4334508, “Oleanolic Acid Derivatives as Potential Inhibitors of HIV-1 Protease” (J Nat Prod, 2019).

Protease, sequence (Q9YQ12 whole entry): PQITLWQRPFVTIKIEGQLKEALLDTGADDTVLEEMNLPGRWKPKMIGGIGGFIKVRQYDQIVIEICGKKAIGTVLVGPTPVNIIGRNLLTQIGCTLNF

This experiment addresses Protease (Human immunodeficiency virus 1, UniProt Q9YQ12). The experiment in a line: Inhibition of HIV1 protease expressed in Escherichia coli using Abz-Ala-Arg-Val-Nle-Tyr(NO2)-Glu-Ala-Nle-NH2 peptide as substrate by FRET assay.
The term IC50 denotes the midpoint of a concentration-inhibition curve. As to `CC1(C)CC[C@]2(C(=O)NCCCCCC(=O)NCC(=O)O)CC[C@]3(C)C(=CC[C@@H]4[C@@]5(C)CC[C@H](OC(=O)CCCC(=O)O)C(C)(C)[C@@H]5CC[C@]43C)[C@@H]2C1`, the IC50 is above 50 µM.

With `CC(C)[C@H](NC(=O)CCCCCNC(=O)[C@]12CCC(C)(C)C[C@H]1C1=CC[C@@H]3[C@@]4(C)CC[C@H](OC(=O)CCC(=O)O)C(C)(C)[C@@H]4CC[C@@]3(C)[C@]1(C)CC2)C(=O)O`, inhibition was half-maximal at 9.6 µM (IC50).

Compound `CCC(=O)O[C@H]1CC[C@]2(C)[C@H]3CC=C4[C@@H]5CC(C)(C)CC[C@]5(C(=O)NCCCCCC(=O)O)CC[C@@]4(C)[C@]3(C)CC[C@H]2C1(C)C` had an IC50 above 50 µM.

Compound `CCCC(=O)O[C@H]1CC[C@]2(C)[C@H]3CC=C4[C@@H]5CC(C)(C)CC[C@]5(C(=O)NCCCCCC(=O)NCC(=O)O)CC[C@@]4(C)[C@]3(C)CC[C@H]2C1(C)C` gave an IC50 above 50 µM.

As for `C[C@H](NC(=O)CCCCCCCCCCNC(=O)[C@]12CCC(C)(C)C[C@H]1C1=CC[C@@H]3[C@@]4(C)CC[C@H](OC(=O)CC(C)(C)CC(=O)O)C(C)(C)[C@@H]4CC[C@@]3(C)[C@]1(C)CC2)C(=O)O`, the concentration for half-maximal inhibition (IC50) was above 50 µM.

Consider `CC1(C)CC[C@]2(C(=O)NCCCC(=O)O)CC[C@]3(C)C(=CC[C@@H]4[C@@]5(C)CC[C@H](OC(=O)CCCC(=O)O)C(C)(C)[C@@H]5CC[C@]43C)[C@@H]2C1`, for which the IC50 came out at 20.4 µM.

Compound `CCCCCCCCCCCC(=O)O[C@H]1CC[C@]2(C)[C@H]3CC=C4[C@@H]5CC(C)(C)CC[C@]5(C(=O)NCCCCCCCCCCC(=O)N[C@@H](C)C(=O)O)CC[C@@]4(C)[C@]3(C)CC[C@H]2C1(C)C` yielded an IC50 above 50 µM.

`CC(C)(CC(=O)O)CC(=O)O[C@H]1CC[C@]2(C)[C@H]3CC=C4[C@@H]5CC(C)(C)CC[C@]5(C(=O)NCCCCCCCCCCC(=O)NCC(=O)O)CC[C@@]4(C)[C@]3(C)CC[C@H]2C1(C)C` gave a 50% inhibitory concentration (IC50) above 50 µM.

With `CC(C)[C@H](NC(=O)CCCCCNC(=O)[C@]12CCC(C)(C)C[C@H]1C1=CC[C@@H]3[C@@]4(C)CC[C@H](OC(=O)c5ccccc5C(=O)O)C(C)(C)[C@@H]4CC[C@@]3(C)[C@]1(C)CC2)C(=O)O`, the IC50 was 0.59 µM.

In the case of `CC(C)(CC(=O)O)CC(=O)O[C@H]1CC[C@]2(C)[C@H]3CC=C4[C@@H]5CC(C)(C)CC[C@]5(C(=O)NCCCC(=O)O)CC[C@@]4(C)[C@]3(C)CC[C@H]2C1(C)C`, the IC50 was found to be 33.3 µM.

Regarding `CC(C)[C@H](NC(=O)CCCCCCCCCCNC(=O)[C@]12CCC(C)(C)C[C@H]1C1=CC[C@@H]3[C@@]4(C)CC[C@H](OC(=O)CCCC(=O)O)C(C)(C)[C@@H]4CC[C@@]3(C)[C@]1(C)CC2)C(=O)O`, the IC50 was above 50 µM.

`CC(C)[C@H](NC(=O)CCCCCCCCCCNC(=O)[C@]12CCC(C)(C)C[C@H]1C1=CC[C@@H]3[C@@]4(C)CC[C@H](OC(=O)CC(C)(C)CC(=O)O)C(C)(C)[C@@H]4CC[C@@]3(C)[C@]1(C)CC2)C(=O)O` yielded an IC50 above 50 µM.

As to `CCCCCCCCCCCC(=O)O[C@H]1CC[C@]2(C)[C@H]3CC=C4[C@@H]5CC(C)(C)CC[C@]5(C(=O)NCCCCCC(=O)O)CC[C@@]4(C)[C@]3(C)CC[C@H]2C1(C)C`, the IC50 is above 50 µM.

`CCC(=O)O[C@H]1CC[C@]2(C)[C@H]3CC=C4[C@@H]5CC(C)(C)CC[C@]5(C(=O)NCCCC(=O)O)CC[C@@]4(C)[C@]3(C)CC[C@H]2C1(C)C` had an IC50 above 50 µM.

`CC(C)[C@H](NC(=O)CCCNC(=O)[C@]12CCC(C)(C)C[C@H]1C1=CC[C@@H]3[C@@]4(C)CC[C@H](OC(=O)CCCC(=O)O)C(C)(C)[C@@H]4CC[C@@]3(C)[C@]1(C)CC2)C(=O)O`: 19.8 µM corresponded to half-maximal inhibition (IC50).

For the compound `CCC(=O)O[C@H]1CC[C@]2(C)[C@H]3CC=C4[C@@H]5CC(C)(C)CC[C@]5(C(=O)NCCCCCC(=O)N[C@H](C(=O)O)C(C)C)CC[C@@]4(C)[C@]3(C)CC[C@H]2C1(C)C`, the concentration for half-maximal inhibition (IC50) was above 50 µM.

As for `C[C@H](NC(=O)CCCNC(=O)[C@]12CCC(C)(C)C[C@H]1C1=CC[C@@H]3[C@@]4(C)CC[C@H](OC(=O)CCCC(=O)O)C(C)(C)[C@@H]4CC[C@@]3(C)[C@]1(C)CC2)C(=O)O`, the 50% inhibitory concentration (IC50) was 6.6 µM.
